Data on eleven compounds can be found in US11078157B1, “Compound embodiments that release H2S by reaction with a reactive compound and methods of making and using the same” (University of Oregon, priority 2018, dated 2021).

Data set [1] is described as follows: H2S release via methylene blue assay (MBA). Format: physicochemical. The note with it: for H2S release / rate of H2S release, effect of alkyl functionalization: dithioesters 25 μM, cysteine 500 μM (20 equivalents), relative to compound 506a; for H2S release in the presence of cysteine: 25 μM compound, cysteine 500 μM (20 equiv.); for H2S release on treatment with GSH: 500 μM GSH; for H2S release on treatment with cysteine methyl ester: 500 μM cysteine methyl ester, compared with cysteine; for entropy of activation (ΔS‡), Eyring analysis: varied temperature; for H2S release on treatment with homocysteine: 500 μM homocysteine; for H2S release on treatment with penicillamine: 500 μM penicillamine; for H2S release in the absence of added nucleophiles (hydrolysis): H2O/PBS, physiological pH; for H2S release on co-incubation with cysteine and GSH: cysteine 500 μM + GSH 1 mM, compared with cysteine alone; for second-order rate constant (k2) of cysteine-triggered H2S release: cysteine 250-1250 μM, pseudo-first order conditions, plot of [Cys] vs kobs; for dependence of H2S release on cysteine concentration: increasing cysteine concentrations; for reaction order in cysteine: plot of log[Cys] versus log(kobs). On the procedure: H2S Detection Materials and Methods—Phosphate buffered saline (PBS) tablets (1×, CalBioChem) were used to prepare buffered solutions (140 mM NaCl, 3 mM KCl, 10 mM phosphate, pH 7.4) in deionized water. Buffer solutions were sparged with N2 to remove dissolved oxygen and stored in an N2-filled glovebox. Donor stock solutions (in DMSO) were prepared inside an N2-filled glovebox and stored at −25° C. until immediately before use. Trigger stock solutions (in PBS) were freshly prepared in an N2-filled glovebox immediately before use.
General Procedure for Measuring H2S Release via Methylene Blue Assay (MBA)—Scintillation vials containing 20 mL of PBS were prepared in an N2-filled glovebox. To these solutions, 20 μL of 500 mM analyte stock solution (in PBS) was added for a final concentration of 500 μM. While stirring, the solutions were allowed to thermally equilibrate in heating block at the desired temperature for approximately 20-30 minutes. Immediately prior to donor addition, 0.5 mL solution of the methylene blue cocktail were prepared in disposable 1.5 mL cuvettes. The methylene blue cocktail solution contained: 200 μL of 30 mM FeCl3 in 1.2 M HCl, 200 μL of 20 mM N,N-dimethyl-p-phenylene diamine in 7.2 M HCl, and 100 μL of 1% (w/v) Zn(OAc)2. […] At set time points after the addition of donor, 500 μL reaction aliquots were added to the methylene blue cocktail solutions and incubated for 1 hour at room temperature shielded from light. Absorbance values at 670 nm were measured 1 hour after addition of reaction aliquot. Each experiment was performed in quadruplicate unless stated otherwise.
MBA Calibration Curve—Solutions containing 0.5 mL of the methylene blue cocktail and 0.5 mL PBS containing 500 μM cysteine were freshly prepared in disposable cuvettes (1.5 mL). Under inert conditions, a 10 mM stock solution of NaSH (Strem Chemicals) in PBS was prepared and diluted to 1 mM. Immediately after dilution, 1 mM NaSH was added to 1.0 mL solutions for final concentrations of 10, 20, 30, 40, and 50 μM. Solutions were mixed thoroughly, incubated at room temperature for 1 hour, and shielded from light. Absorbance values at 670 nm were measured after 1 hour.
In this example, the released H2S was measured and quantified using the methylene blue assay for H2S. In a typical use of this assay, aliquots from a reaction mixture with the H2S donor and cysteine are treated with 0.5 mL of a methylene blue assay mixture containing 0.1 mL zinc acetate (1% w/v), 0.2 mL FeCl3 (30 mM in 1.2 M HCl), and 0.2 mL N,N-dimethyl-p-phenylene diamine (20 mM in 7.2 M HCl)). After incubation for 1 hour, the absorbance at 670 nm is measured and converted to a H2S concentration by using the H2S calibration curve. To assess the H2S-releasing efficiency from the compound embodiments, a methylene blue calibration curve was used to quantify the H2S release (FIG. 2).

Data set [2] can be described thus: pKa and thiolate fraction of thiol triggers (literature). In kind it is physicochemical. The conditions noted are these: under physiological conditions.
For data set [3] the following is noted: thiol; cited from earlier work.
The mark [4] stands for this setting: 25 μM donor, cysteine, after 1 hour.

“Also recorded” adds a separate entry of the source.

Take `S=C(SCc1ccccc1)c1ccccc1` [compound 506d]: the “H2S release / rate of H2S release, effect of alkyl functionalization” value (“H2S release / rate of H2S release” for short) in data set [1] is listed as “minimal H2S release”.
As for `CC(C)C(=S)SCc1ccccc1` [compound 506f], the “H2S release / rate of H2S release” value in data set [1] is listed as “relatively slow H2S release”.
The same measure, in the same setting: to `CC(=S)SCc1ccccc1` [compound 506e] belongs “H2S release was observed”.
`O=C(Sc1ccccc1)c1ccccc1` [S-phenyl benzothioate, reference compound]: in data set [1], the “H2S release in the presence of cysteine” value is “lack of H2S release; also recorded: Neither of these compounds released H2S”.
For the compound `CC(C)C(=S)Sc1ccccc1` [compound 506c], the “H2S release / rate of H2S release” value in data set [1] is reported as “enhanced rates of H2S release”.
Take `N[C@@H](CCS)C(=O)O` [homocysteine]: the “effective concentration of thiolate” value in data set [2] is approximately 0.03%. Also, the pKa (in general, the negative logarithm of the acid dissociation constant) in data set [3] is approximately 10.
For the compound `N[C@@H](CS)C(=O)O` [cysteine], in data set [2], the “effective concentration of thiolate” value is recorded as approximately 10%. Also, in data set [3], the pKa is approximately 8.5.
Regarding `S=C(Sc1ccccc1)c1ccccc1` [compound 506a], in data set [1] (25 μM donor), the “H2S release on treatment with GSH” value is “a significant H2S release was not observed”, the “H2S release on treatment with cysteine methyl ester” value is “did not affect H2S release”, the “H2S release on treatment with homocysteine” value is “a reduction in the H2S release rate” and the “H2S release on treatment with penicillamine” value was “significant H2S release was not observed”. In data set [1] (25 μM donor), the “H2S release in the absence of added nucleophiles (hydrolysis)” value is reported as “H2S release was not observed”; the “H2S release on co-incubation with cysteine and GSH” value was “Minimal change on the cysteine-triggered H2S release”; the “second-order rate constant (k2) of cysteine-triggered H2S release” value was found to be 1.8 ± 0.1 M⁻¹ s⁻¹; the “dependence of H2S release on cysteine concentration” value is “Increasing amounts of H2S released with increasing cysteine concentrations”. In addition, in data set [1] (25 μM donor, 500 μM cysteine), the “entropy of activation (ΔS‡), Eyring analysis” value was −23±1 eu. In data set [1] (setting [4]), the “H2S released after 1 hour” value is reported as “approximately 17 μM” and the H2S releasing efficiency is approximately 68%. For the same compound, in data set [1] (25 μM donor, thiol or amine moiety of cysteine masked), the “H2S release with cysteine derivatives having masked thiol or amine” value was “reduced H2S release”. In addition, the “experimentally-observed ΔH‡” value in data set [1] (Eyring analysis, 25 μM donor, 500 μM cysteine) amounted to 60.2 kJ/mol. For the same compound, the “reaction order in cysteine” value in data set [1] is recorded as “first order in cysteine”.
For the compound `CC(=S)Sc1ccccc1` [compound 506b], in data set [1], the “H2S release / rate of H2S release” value is on record as “enhanced rates of H2S release”.
For `O=C(Oc1ccccc1)c1ccccc1` [phenyl benzoate, reference compound], in data set [1], the “H2S release in the presence of cysteine” value is listed as “lack of H2S release; also recorded: Neither of these compounds released H2S”.
For the compound `S=C(Oc1ccccc1)c1ccccc1` [compound 604a, O-Phenyl benzothioate], in data set [1], the “H2S release in the presence of cysteine” value is given as “result in H2S release” and the “reaction order in cysteine” value is given as “first-order dependence in cysteine”. In data set [1] (25 μM donor), the “H2S release on treatment with GSH” value is “does not result in H2S release; also recorded: did not generate H2S”; the “H2S release on treatment with cysteine methyl ester” value is reported as “did not affect H2S production”; the “H2S release on treatment with homocysteine” value is “result in H2S release; also recorded: resulted in H2S release, although at a slower rate than from treatment with cysteine”; the “H2S release on treatment with penicillamine” value is on record as “result in H2S release”. Moreover, in data set [1] (25 μM donor), the “H2S release in the absence of added nucleophiles (hydrolysis)” value was “no hydrolysis-mediated H2S release was observed”; the “H2S release on co-incubation with cysteine and GSH” value is “results in H2S release, albeit at a slower rate than with Cys alone; also recorded: a reduced rate of H2S release was observed”; the “second-order rate constant (k2) of cysteine-triggered H2S release” value was 9.1 ± 0.3 M⁻¹ s⁻¹; the “dependence of H2S release on cysteine concentration” value is given as “dose-dependent release of H2S; also recorded: Increased cysteine concentrations led to increased rates of H2S production”. The “H2S release on treatment with N-acetylcysteine” value in data set [1] (25 μM donor, 500 μM N-acetylcysteine) is given as “did not, in H2S release”. Further, the “H2S release on treatment with N-acetylcysteine methyl ester” value in data set [1] (25 μM donor, 500 μM N-acetylcysteine methyl ester) is recorded as “did not, in H2S release”. Also, the “H2S release on treatment with S-methylcysteine” value in data set [1] (25 μM donor, 500 μM S-methylcysteine) is “did not, in H2S release”. The H2S releasing efficiency in data set [1] (25 μM donor, 500 μM cysteine (20 equivalents)) is given as 80%. For the same compound, the “entropy of activation (ΔS‡), Eyring analysis” value in data set [1] (25 μM donor, 500 μM cysteine) is given as −38±3 eu. The “H2S release on treatment with lysine” value in data set [1] (25 μM donor, 500 μM lysine) is given as “did not result in H2S release”. Further, the “H2S release on treatment with serine” value in data set [1] (25 μM donor, 500 μM serine) is given as “did not result in H2S release”. Besides, the “H2S release on treatment with porcine liver esterase (PLE)” value in data set [1] (25 μM donor, PLE 1.0 U/mL) is “H2S generation was not observed”. The “Cysteine-triggered H2S release in the presence of lysine” value in data set [1] (25 μM donor, cysteine 500 μM + lysine 500 μM) was “no change in H2S releasing-efficiency was observed”. For the same compound, the H2S released in data set [1] (25 μM solution of donor, 500 μM cysteine (20 equivalents)) is 20 µM.
